Reference: the NIST ThermoML archive (doi:10.1016/j.jct.2009.04.019)
“And” between values parts separate entries of the source, which are not always exact repeats. Identical values can stand only once. ± gives the expanded uncertainty stated by the source.

Conditions: Liquid, Transpiration method

C[C@H](O)CO [(+)-(S)-1,2-propanediol]
Conditions	vapor or sublimation pressure
283.5 K	0.00427 ± 0.00024 kPa
288.2 K	0.00685 ± 0.00038 kPa
293.5 K	0.01187 ± 0.00061 kPa and 0.00968 ± 0.00051 kPa
297.4 K	0.01371 ± 0.0015 kPa
298.2 K	0.01924 ± 0.0011 kPa
298.4 K	0.01891 ± 0.0011 kPa
301.3 K	0.025 ± 0.0013 kPa
301.4 K	0.01968 ± 0.001 kPa
303.3 K	0.02341 ± 0.0012 kPa
303.4 K	0.02968 ± 0.0015 kPa
305.4 K	0.02776 ± 0.0015 kPa
306.3 K	0.03848 ± 0.0021 kPa
306.4 K	0.0369 ± 0.0021 kPa
309.3 K	0.04816 ± 0.0025 kPa
310.4 K	0.05059 ± 0.0028 kPa and 0.04222 ± 0.0024 kPa and 0.04205 ± 0.0024 kPa
312.3 K	0.06434 ± 0.0034 kPa and 0.06424 ± 0.0034 kPa
313.2 K	0.06711 ± 0.0034 kPa
313.3 K	0.06784 ± 0.0034 kPa
313.4 K	0.05485 ± 0.0027 kPa
315.4 K	0.06624 ± 0.004 kPa
316.2 K	0.09048 ± 0.0049 kPa
316.3 K	0.08971 ± 0.0049 kPa and 0.0869 ± 0.0048 kPa
318.3 K	0.09934 ± 0.0052 kPa
318.4 K	0.08522 ± 0.0044 kPa
319.3 K	0.113 ± 0.0065 kPa
320.4 K	0.1173 ± 0.006 kPa and 0.09922 ± 0.0051 kPa
320.5 K	0.09891 ± 0.0051 kPa
321.3 K	0.1276 ± 0.0077 kPa
322.3 K	0.1391 ± 0.007 kPa
322.5 K	0.1397 ± 0.007 kPa
323.4 K	0.1284 ± 0.0064 kPa
323.5 K	0.1563 ± 0.0078 kPa and 0.1318 ± 0.0066 kPa
324.5 K	0.1349 ± 0.007 kPa
325.3 K	0.1747 ± 0.01 kPa and 0.1406 ± 0.0089 kPa
325.4 K	0.1734 ± 0.01 kPa
326.4 K	0.1847 ± 0.0092 kPa
326.5 K	0.1504 ± 0.0076 kPa
327.3 K	0.1676 ± 0.011 kPa
327.4 K	0.1988 ± 0.012 kPa
328.3 K	0.2178 ± 0.011 kPa
328.4 K	0.184 ± 0.01 kPa
328.5 K	0.1824 ± 0.0099 kPa
328.6 K	0.2155 ± 0.012 kPa
329.5 K	0.2399 ± 0.013 kPa
331.3 K	0.2757 ± 0.014 kPa
331.4 K	0.2346 ± 0.012 kPa
333.3 K	0.2616 ± 0.014 kPa
335.4 K	0.303 ± 0.016 kPa
338.4 K	0.3685 ± 0.019 kPa
